# Tests used:
# [1] = system: AAD-13 (v1) transformed T1 Arabidopsis; test: Postemergence herbicide response of AAD-13 (v1) T1 Arabidopsis; type: in vivo, Arabidopsis thaliana; settings: 14 DAT
# Procedure: Seven days after planting (DAP) and again 11 DAP, T1 plants (cotyledon and 2-4-lf stage, respectively) were sprayed with a 0.2% solution of Liberty herbicide (200 g ai/L glufosinate, Bayer Crop Sciences, Kansas City, Mo.) at a spray volume of 10 ml/tray (703 L/ha) using a DeVilbiss compressed air spray tip to deliver an effective rate of 280 g ai/ha glufosinate per application. Survivors (plants actively growing) were identified 4-7 days after the final spraying and transplanted individually into 3-inch pots prepared with potting media (Metro Mix 360). Transplanted plants were covered with humidity domes for 3-4 days and placed in a 22° C. growth chamber as before or moved to directly to the greenhouse. Domes were subsequently removed and plants reared in the greenhouse (22±5° C., 50±30% RH, 14 h light:10 dark, minimum 500 μE/m^2s^1 natural+supplemental light) at least 1 day prior to testing for the ability of AAD-13 (v1) to provide phenoxy auxin herbicide resistance.
# T1 plants were then randomly assigned to various rates of 2,4-D. For Arabidopsis, 50 g ae/ha 2,4-D is an effective dose to distinguish sensitive plants from ones with meaningful levels of resistance. Elevated rates were also applied to determine relative levels of resistance (280, 560, 1120, or 2240 g ae/ha). Tables 11 and 12 show comparisons drawn to an aryloxyalkanoate herbicide resistance gene (AAD-12 (v1)) previously described in PCT/US2006/042133.
# All auxin herbicide applications were made using the DeVilbiss sprayer as described above to apply 703 L/ha spray volume (0.4 ml solution/3-inch pot) or applied by track sprayer in a 187 L/ha spray volume. 2,4-D used was either technical grade (Sigma, St. Louis, Mo.) dissolved in DMSO and diluted in water (<1% DMSO final concentration) or the commercial dimethylamine salt formulation (456 g ae/L, NuFarm, St Joseph, Mo.). Dichlorprop used was commercial grade formulated as potassium salt of R-dichlorprop (600 g ai/L, AH Marks). As herbicide rates increased beyond 800 g ae/ha, the pH of the spray solution became exceedingly acidic, burning the leaves of young, tender Arabidopsis plants and complicating evaluation of the primary effects of the herbicides.
# The first Arabidopsis transformations were conducted using AAD-13 (v1) (plant optimized gene). T1 transformants were first selected from the background of untransformed seed using a glufosinate selection scheme. Over 160,000 T1 seed were screened and 238 glufosinate resistant plants were identified (PAT gene), equating to a transformation/selection frequency of 0.15% which lies in the normal range of selection frequency of constructs where PAT+Liberty are used for selection. T1 plants selected above were subsequently transplanted to individual pots and sprayed with various rates of commercial aryloxyalkanoate herbicides. Table 11 compares the response of AAD-13 (v1) and control genes to impart 2,4-D resistance to Arabidopsis T1 transformants. Response is presented in terms of % visual injury 2 WAT. […] An arithmetic mean and standard deviation is presented for each treatment. The range in individual response is also indicated in the last column for each rate and transformation. PAT/Cry1F-transformed Arabidopsis served as an auxin-sensitive transformed control. The AAD-13 (v1) gene imparted herbicide resistance to individual T1 Arabidopsis plants. Within a given treatment, the level of plant response varied greatly and can be attributed to the fact each plant represents an independent transformation event. Of important note, at each 2,4-D rate tested, there were individuals that were unaffected while some were severely affected. […] At high rates the spray solution becomes highly acidic unless buffered therefore some of the injury may be attributed to the acidity of the spray solution. Arabidopsis grown mostly in the growth chamber has a very thin cuticle and severe burning effects can complicate testing at these elevated rates. […]
# [2] = system: KY160 untransformed tobacco; test: Herbicide response of untransformed KY160 tobacco; type: in vivo, Nicotiana tabacum; settings: for % Injury 20-40% (individuals) / % Injury <20% (individuals) / % Injury >40% (individuals) / % Injury Ave: 2 WAT; for plant response to foliar applied auxinic herbicides (injury): 14 days after application
# Source text: (§1) Surviving T1 plants were then randomly assigned to various rates of 2,4-D. For tobacco, 140 g ae/ha 2,4-D is an effective dose to distinguish sensitive plants from ones with meaningful levels of resistance. Elevated rates were also applied to determine relative levels of resistance (140, 560, or 2240 g ae/ha).
# (§2) All auxin herbicide applications were applied by track sprayer in a 187 L/ha spray volume. 2,4-D used was the commercial dimethylamine salt formulation (456 g ae/L, NuFarm, St Joseph, Mo.). Some T1 individuals were subjected to alternative commercial herbicides instead of a phenoxy auxin. One point of interest was determining whether the pyridyloxyacetate auxin herbicides, triclopyr and fluoroxypyr, could be effectively degraded in planta. Herbicides were applied to T1 plants with use of a track sprayer in a 187 L/ha spray volume.
# (§3) T1 transformants were first selected from the background of untransformed plants using a 2,4-D selection scheme. Table 15 compares the response of AAD-13 (v1) and control genes to impart 2,4-D resistance to tobacco T1 transformants. Response is presented in terms of % visual injury 2 WAT. […] An arithmetic mean and standard deviation is presented for each treatment. The range in individual response is also indicated in the last column for each rate and transformation. KY160 untransformed tobacco served as an auxin-sensitive control. The AAD-13 (v1) gene imparted herbicide resistance to individual T1 tobacco plants.
# (§4) The ability of AAD-13 (v1) to provide resistance to other aryloxyalkanoate auxin herbicides in transgenic tobacco was determined by foliar application of various substrates. Extra T1 generation plants following the T1 progeny testing were sprayed with the use of a track sprayer set at 187 L/ha. The plants were sprayed with a range of pyridyloxyacetate herbicides: 140-1120 g ae/ha triclopyr (Garlon 3A, Dow AgroSciences) and 280-1120 g ae/ha fluoroxypyr (Starane, Dow AgroSciences). All applications were formulated in water. Each treatment was replicated 3 times. Plants were evaluated at 3 and 14 days after treatment.
# [3] = system: AAD-13 (v1) gene T1 tobacco plants; test: Herbicide response of AAD-13 (v1) T1 tobacco; type: in vivo, Nicotiana tabacum; settings: for % Injury 20-40% (individuals) / % Injury <20% (individuals) / % Injury >40% (individuals) / % Injury Ave: 2 WAT; for plant response to foliar applied auxinic herbicides (injury): 14 days after application, line pDAB4114[1]003.006
# Source text: as §1, §2, §3, §4
structure (smiles),measurement,setting,value
"CNC.O=C(O)COc1ccc(Cl)cc1Cl [2,4-D DMA]",% Injury 20-40% (individuals),[1]; 280 g ae/ha postemergence,4
same,% Injury <20% (individuals),[1]; 280 g ae/ha postemergence,12
same,% Injury >40% (individuals),[1]; 280 g ae/ha postemergence,4
same,% Injury Ave,[1]; 280 g ae/ha postemergence,21%
same,% Injury 20-40% (individuals),[1]; 560 g ae/ha postemergence,2
same,% Injury <20% (individuals),[1]; 560 g ae/ha postemergence,17
same,% Injury >40% (individuals),[1]; 560 g ae/ha postemergence,0
same,% Injury Ave,[1]; 560 g ae/ha postemergence,2%
same,% Injury 20-40% (individuals),[1]; 1120 g ae/ha postemergence,0
same,% Injury <20% (individuals),[1]; 1120 g ae/ha postemergence,20
same,% Injury >40% (individuals),[1]; 1120 g ae/ha postemergence,0
same,% Injury Ave,[1]; 1120 g ae/ha postemergence,2%
same,% Injury 20-40% (individuals),[1]; 2240 g ae/ha postemergence,3
same,% Injury <20% (individuals),[1]; 2240 g ae/ha postemergence,14
same,% Injury >40% (individuals),[1]; 2240 g ae/ha postemergence,3
same,% Injury Ave,[1]; 2240 g ae/ha postemergence,15%
same,% Injury 20-40% (individuals),[2]; 140 g ae/ha postemergence,0
same,% Injury <20% (individuals),[2]; 140 g ae/ha postemergence,0
same,% Injury >40% (individuals),[2]; 140 g ae/ha postemergence,3
same,% Injury Ave,[2]; 140 g ae/ha postemergence,80.0%
same,% Injury 20-40% (individuals),[2]; 560 g ae/ha postemergence,0
same,% Injury <20% (individuals),[2]; 560 g ae/ha postemergence,0
same,% Injury >40% (individuals),[2]; 560 g ae/ha postemergence,3
same,% Injury Ave,[2]; 560 g ae/ha postemergence,88.0%
same,% Injury 20-40% (individuals),[2]; 2240 g ae/ha postemergence,0
same,% Injury <20% (individuals),[2]; 2240 g ae/ha postemergence,0
same,% Injury >40% (individuals),[2]; 2240 g ae/ha postemergence,3
same,% Injury Ave,[2]; 2240 g ae/ha postemergence,92.0%
same,% Injury 20-40% (individuals),[3]; 140 g ae/ha postemergence,0
same,% Injury <20% (individuals),[3]; 140 g ae/ha postemergence,3
same,% Injury >40% (individuals),[3]; 140 g ae/ha postemergence,0
same,% Injury Ave,[3]; 140 g ae/ha postemergence,0.0%
same,% Injury 20-40% (individuals),[3]; 560 g ae/ha postemergence,0
same,% Injury <20% (individuals),[3]; 560 g ae/ha postemergence,3
same,% Injury >40% (individuals),[3]; 560 g ae/ha postemergence,0
same,% Injury Ave,[3]; 560 g ae/ha postemergence,0.0%
same,% Injury 20-40% (individuals),[3]; 2240 g ae/ha postemergence,0
same,% Injury <20% (individuals),[3]; 2240 g ae/ha postemergence,3
same,% Injury >40% (individuals),[3]; 2240 g ae/ha postemergence,0
same,% Injury Ave,[3]; 2240 g ae/ha postemergence,2.0%
"C[C@@H](Oc1ccc(Cl)cc1Cl)C(=O)O [R-dichloroprop, R-dichlorprop]",% Injury 20-40% (individuals),[1]; 800 g ae/ha postemergence,0
same,% Injury <20% (individuals),[1]; 800 g ae/ha postemergence,0
same,% Injury >40% (individuals),[1]; 800 g ae/ha postemergence,20
same,% Injury Ave,[1]; 800 g ae/ha postemergence,100%
Nc1c(Cl)c(F)nc(OCC(=O)O)c1Cl [fluoroxypyr],plant response to foliar applied auxinic herbicides (injury),[2]; 280 g ae/ha,100.0
same,plant response to foliar applied auxinic herbicides (injury),[2]; 560 g ae/ha,100.0
same,plant response to foliar applied auxinic herbicides (injury),[2]; 1120 g ae/ha,100.0
same,plant response to foliar applied auxinic herbicides (injury),[3]; 280 g ae/ha,7.0
same,plant response to foliar applied auxinic herbicides (injury),[3]; 560 g ae/ha,25.0
same,plant response to foliar applied auxinic herbicides (injury),[3]; 1120 g ae/ha,37.0
same,rate up to which significant tolerance is provided,"[3]; foliar application, T1 tobacco",up to 1120 g ae/ha
O=C(O)COc1nc(Cl)c(Cl)cc1Cl [triclopyr],plant response to foliar applied auxinic herbicides (injury),[2]; 280 g ae/ha,82.0
same,plant response to foliar applied auxinic herbicides (injury),[2]; 560 g ae/ha,88.0
same,plant response to foliar applied auxinic herbicides (injury),[2]; 1120 g ae/ha,92.0
same,plant response to foliar applied auxinic herbicides (injury),[3]; 280 g ae/ha,53.0
same,plant response to foliar applied auxinic herbicides (injury),[3]; 560 g ae/ha,65.0
same,plant response to foliar applied auxinic herbicides (injury),[3]; 1120 g ae/ha,75.0
